# Columns and labels:
# [1] = system: Salmonella typhimurium (TA100, TA1535, TA98, TA1537) and Escherichia coli (WP2uvrA); assay: Bacterial reverse mutation assay (GLP); details: five bacterial strains
# Procedure: Bacterial reverse mutation assay (Study no. YL18407). The bacterial reverse mutation assay of STP0404 was performed in two conditions (with or without metabolic activation) for the dose range-finding test (doses of STP0404rangingfrom 2.29 to 5,000μg/plate) and the main test (doses of STP0404 ranging from 19.5 to 5,000 μg/plate) in comparison with negative control (DMSO) and active controls (sodium azide, 2-(2-furyl)-3-(5-nitro-2-furyl) acrylamide, 2-aminoanthracene, 9-aminoacridine hydrochloride). Salmonella typhimurium (TA100, TA1535) and Escherichia coli (WP2uvrA) were used for detection of base-pair substitutions. Salmonella typhimurium (TA98, TA1537) was used for detection of frameshift mutations. Chromosomal Aberration Test of STP0404 in Cultured Mammalian Cells (Study no. YL18408). Presence/absence of genotoxicity of STP0404 was determined using chromosomal aberration test carried out in CHL/IU cells. The test comprised a dose range-finding test and a main test. Micronucleus Study of STP0404 by oral administration in Rats (Study no. YL18409). STP0404 was administered orally to SD rats (3/group in preliminary test and 6/group in the main test) at dose levels of 500, 1000 and 2000 mg/kg/day once daily for 2 days in a two-test study (preliminary test and main test) to investigate the genotoxicity profile of STP0404. […] Bone marrow smear slides were evaluated (INA Research, Japan).
# [2] = In vivo pharmacokinetics in beagle dogs; details: male, plasma, Dog
# Procedure: Study design: […]). Group 1 was dosed with STP0404 at 1 mg/kg by single intravenous administration. Groups 2 to 4 were dosed with STP0404 at 20, 40 and 80 mg/kg, respectively, by single oral administration. The vehicle used for IV study was DMSO: PEG400: […] Blood samples were collected at 0.0833, 0.25, 0.5, 1, 2, 4, 8, 12 (only for PO groups) and 24 hrs post-dose for Groups 1 to 4. STP0404 concentrations in plasma samples were determined by LC-MS/MS. Preclinical Dog pharmacokinetics study (Study no. 400751-2015020201-DPK): A total of 6 male Beagle dogs were divided into two groups (3 animals/group). Following single STP0404 2 mg/kg oral and intravenous administration to Beagle Dogs, STP0404 concentration was determined in plasma, and pharmacokinetic parameters were calculated. […] The concentrations of STP0404 in plasma were determined by using a LC/MS/MS method.
# [3] = system: HIV-GFP in LEDGF/p75 knockout Jurkat cell lines (1-F10 and 2-C10); assay: HIV-1 inhibition in infecting LEDGF/p75 knockout cells; assay type: cell-based; details: 60 nM
# Procedure: To test for STP0404’s inhibitory effects during the late stage of HIV-1 life cycle such as the maturation step, we employed the “producing cells” setup. In T75 tissue culture flasks, 293T cells were pre-treated with and without STP0404 (0 and 60 nM) for 2 hrs prior to transfection with pD3-HIV (13 μg) and pVSV-g (6 μg), using 0.3 mg/ml polyethylenimine. After 24 hrs incubation at 37°C, the supernatant was removed and replaced with fresh media with and without STP0404 (0 and 60 nM). 48 hrs later, D3-HIV vector from each treatment group was concentrated from the collected supernatant via ultracentrifugation (22,000 rpm for 2 hrs). Following p24 quantification, using 96-well plates, similar amount of respective D3-HIV vector was used to transduce Jurkat cells in triplicates for 48 hrs. The cells were harvested and fixed with 3.7% formaldehyde before being analyzed for GFP expression using FACS (Miltenyi Biotec, VYB). Separately, the “infecting cells” setup was used to investigate the inhibitory effects of STP0404 against the early stages of HIV-1 life cycle such as the integration and transcription steps. […] All data were analyzed using GraphPad Prism (Version 9). Unpaired t tests were performed to determine the significance of the readings in respective experimental set up relative to the untreated controls. […]
smiles,measurement,setting,value
Cc1nc2c(c(C)c(C)n2Cc2cnn(C)c2)c(-c2ccc(Cl)cc2)c1[C@H](OC(C)(C)C)C(=O)O [STP0404],gene mutation-inducing potential,[1],lacked
same,AUC,"[2]; iv, 2 mg/kg (i.v)",9.26 µM·h
same,half-life,"[2]; iv, 2 mg/kg (i.v)",6.11 h
same,AUC,"[2]; po, 2 mg/kg (p.o)",4.68 µM·h
same,Cmax,"[2]; po, 2 mg/kg (p.o)",3.98 µM
same,half-life,"[2]; po, 2 mg/kg (p.o)",6.9 h
same,bioavailability,"[2]; po, 2 mg/kg (p.o), read-out: Ft (oral bioavailability)",50.6%
same,infection of LEDGF/p75 knockout Jurkat T cells,[3],failed to significantly inhibit infection

# Source: PMC8297771 (PLoS Pathogens, 2021)
